Usually EC90 stands for the concentration at which the effect reaches the 90% level. Usually IC50 stands for the concentration that inhibits the measured activity by half.

In one data set the test system is HSV-1. Kind of data set: Antiviral activity, HSV-1 in Vero cells, plaque method. In kind it is cell-based. The settings on record: Human alphaherpesvirus 1, 20 hours, 90% inhibition of plaque formation. The procedure, abridged: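 HSV-1 (50,000 pfu in 2% FBS-DMEM) was added to Vero cells and removed, then the compound was applied in 2% FBS-DMEM for 20 h at 37° C, 5% CO2. After a freeze-thaw, virus yield in the medium was titred by plaque assay. EC90 is the concentration giving 90% plaque reduction versus the compound-free control.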

The target in the next data set is T1, HSV-1 protease (Human herpesvirus 1, UniProt P10210).
T1 construct: 6xHis (N); made in house; host or cells: baculovirus expression system
Kind of data set: Enzymatic assay for HSV-1 protease (assembly) inhibitor, fluorescence polarization. In kind it is biochemical. To be noted: read-out: HSV-1 Enzyme inhibition IC50. The procedure, abridged: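 His6-tagged HSV-1 UL26 protease, baculovirus-expressed, preincubated 30 min at RT with compound in 1 M citrate/phosphate buffer pH 7.4 with 20% glycerol and 2 mM TCEP. A biotin-HTYLQA*SERFRIK-DTAF substrate was then cleaved for 60 min at RT, stopped with avidin, and read by fluorescence polarization versus no-inhibitor control.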
(In general: Polarisation of emitted light reports the rotation of a fluorescent probe.)

For another data set, the system named is Vero cells. The data set can be described thus: Cytotoxicity, Vero cells, Alamar Blue. In kind it is cell-based. To be noted: 25 μM, 20 hours. The procedure, abridged: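 Overnight-seeded Vero cells were exposed to 25 μM compound in 2% FBS-DMEM for 20 h at 37 °C, 5% CO2. Alamar Blue was then added for about 6 h. The absorbance ratio relative to compound-free control gave the living-cell ratio.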

T1 sequence (P10210 1-247): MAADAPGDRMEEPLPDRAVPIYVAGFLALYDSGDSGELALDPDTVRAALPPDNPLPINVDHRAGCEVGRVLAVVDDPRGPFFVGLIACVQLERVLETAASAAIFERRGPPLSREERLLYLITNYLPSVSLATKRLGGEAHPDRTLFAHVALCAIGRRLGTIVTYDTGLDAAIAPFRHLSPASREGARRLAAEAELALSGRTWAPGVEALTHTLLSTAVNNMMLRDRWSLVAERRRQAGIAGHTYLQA

Compound `Cc1c(NC(=O)c2ccc3c(c2)OCO3)ccc2nc(NC(C)(C)C(=O)N(C)CCc3ccccn3)oc(=O)c12` [Compound No.193, Benzo[1,3]dioxol-5-carboxylic acid (5-methyl-2-{1-methyl-1-[methyl-(2-pyridin-2-yl-ethyl)-carbamoyl]-ethylamino}-4-oxo-4H-benzo[d][1,3]oxazin-6-yl)-amide] registered a 90% effect concentration (EC90) in the data set with HSV-1 of at least 12.5 µM. Further, the IC50 at HSV-1 protease came to 3.7 µM. Also, the “Cell viability (% of control)” value in the data set on Vero cells turned out to be 67.0%.

For the compound `Cc1c(NC(=O)OC(C)(C)C)ccc2nc(N[C@@H](CC(C)C)C(=O)NCc3ccncc3)oc(=O)c12` [Compound No.38, (5-Methyl-2-{3-methyl-1S-[(pyridin-4-ylmethyl)-carbamoyl]-butylamino}-4-oxo-4H-benzo[d][1,3]oxazin-6-yl)-carbamic acid tert-butyl ester], the EC90 in the data set with HSV-1 was over 25 µM. Moreover, the IC50 at HSV-1 protease was 10.1 µM. The “Cell viability (% of control)” value in the data set with Vero cells worked out at 105.0%.

Consider `Cc1c(NC(=O)c2ccc([N+](=O)[O-])cc2)ccc2nc(NC(C)(C)C(=O)N(C)CCc3ccccn3)oc(=O)c12` [Compound No.142, N-(5-Methyl-2-{1-methyl-1-[methyl-(2-pyridin-2-yl-ethyl)-carbamoyl]-ethylamino}-4-oxo-4H-benzo[d][1,3]oxazin-6-yl)-4-nitro-benzamide], for which the 90% effect level in the data set with HSV-1 (EC90) was put at 10.4 µM. The IC50 at HSV-1 protease was determined as 1.3 µM. In the data set on Vero cells, the “Cell viability (% of control)” value is reported as 61.0%.

In the case of `Cc1c(NC(=O)OC(C)(C)C)ccc2nc(N[C@@H](CC(C)C)C(=O)NCc3cccnc3)oc(=O)c12` [Compound No.37, (5-Methyl-2-{3-methyl-1S-[(pyridin-3-ylmethyl)-carbamoyl]-butylamino}-4-oxo-4H-benzo[d][1,3]oxazin-6-yl)-carbamic acid tert-butyl ester], in the data set with HSV-1, the EC90 came out at 15 µM. In addition, on HSV-1 protease, the IC50 came out at 4.6 µM. Also, the “Cell viability (% of control)” value with Vero cells was 105.0%.

On to `Cc1c(NC(=O)c2ccco2)ccc2nc(NC(C)(C)C(=O)N(C)CCc3ccccn3)oc(=O)c12` [Compound No.139, Furan-2-carboxylic acid (5-methyl-2-{1-methyl-1-[methyl-(2-pyridin-2-yl-ethyl)-carbamoyl]-ethylamino}-4-oxo-4H-benzo[d][1,3]oxazin-6-yl)-amide], for which the EC90 with HSV-1 was over 12.5 µM. In addition, the IC50 on HSV-1 protease came out at 1.4 µM. Also, the “Cell viability (% of control)” value in the data set on Vero cells came to 90.7%.

Turning to `COc1cccc(C(=O)Nc2ccc3nc(NC(C)(C)C(=O)N(C)CCc4ccccn4)oc(=O)c3c2C)c1` [Compound No.162, 3-Methoxy-N-(5-methyl-2-{1-methyl-1-[methyl-(2-pyridin-2-yl-ethyl)-carbamoyl]-ethylamino}-4-oxo-4H-benzo[d][1,3]oxazin-6-yl)-benzamide], it took 10.2 µM to reach the 90% level in the data set on HSV-1 (EC90). Besides, the IC50 on HSV-1 protease was 1.8 µM. Besides, the “Cell viability (% of control)” value with Vero cells was found to be 75.5%.

As for `Cc1c(NC(=O)OC(C)(C)C)ccc2nc(N[C@H](C(=O)N(C)CCc3ccncc3)C(C)(C)C)oc(=O)c12` [Compound No.52, (2-{2,2-Dimethyl-1S-[methyl-(2-pyridin-4-yl-ethyl)-carbamoyl]-propylamino}-5-methyl-4-oxo-4H-benzo[d][1,3]oxazin-6-yl)-carbamic acid tert-butyl ester], the EC90 in the data set with HSV-1 stood at 6 µM. The IC50 on HSV-1 protease was determined as 49 µM. Also, the “Cell viability (% of control)” value in the data set with Vero cells worked out at 64.5%.

As to `Cc1c(NC(=O)OC(C)(C)C)ccc2nc(N3Cc4ccccc4C[C@H]3C(=O)NCc3ccncc3)oc(=O)c12` [Compound No.96, (5-Methyl-4-oxo-2-{3S-[(pyridin-4-ylmethyl)-carbamoyl]-3,4-dihydro-1H-isoquinolin-2-yl}-4H-benzo[d][1,3]oxazin-6-yl)-carbamic acid tert-butyl ester], it took 11.2 µM to reach the 90% level in the data set with HSV-1 (EC90). Further, the half-maximal inhibitory concentration (IC50) at HSV-1 protease was 5.5 µM. Moreover, in the data set on Vero cells, the “Cell viability (% of control)” value was determined as 55.4%.

In the data set with HSV-1, `Cc1c(NC(=O)OC(C)(C)C)ccc2nc(N3C[C@H](OCc4ccccc4)C[C@H]3C(=O)NCCc3ccccn3)oc(=O)c12` [Compound No.112, {2-[4R-Benzyloxy-2S-(2-pyridin-2-ylethylcarbamoyl)-pyrrolidin-1-yl]-5-methyl-4-oxo-4H-benzo[d][1,3]oxazin-6-yl}-carbamic acid tert-butyl ester] yielded an EC90 of 10.7 µM. In addition, the IC50 at HSV-1 protease worked out at 2.7 µM. Moreover, in the data set on Vero cells, the “Cell viability (% of control)” value turned out to be 84.2%.

Regarding `Cc1c(NC(=O)c2cccc(F)c2)ccc2nc(NC(C)(C)C(=O)N(C)CCc3ccccn3)oc(=O)c12` [Compound No.148, 3-Fluoro-N-(5-methyl-2-{1-methyl-1-[methyl-(2-pyridin-2-yl-ethyl)-carbamoyl]-ethylamino}-4-oxo-4H-benzo[d][1,3]oxazin-6-yl)-benzamide], it took 10.3 µM to reach the 90% level in the data set on HSV-1 (EC90). Also, the IC50 on HSV-1 protease was found to be 1.5 µM. For the same compound, the “Cell viability (% of control)” value in the data set with Vero cells is on record as 54.6%.

In the data set with HSV-1, `Cc1c(NC(=O)OC(C)(C)C)ccc2nc(N3CCCC[C@H]3C(=O)NCCc3ccccn3)oc(=O)c12` [Compound No.105, {5-Methyl-4-oxo-2-[2S-(2-pyridin-2-ylethylcarbamoyl)-piperidin-1-yl]-4H-benzo[d][1,3]oxazin-6-yl}-carbamic acid tert-butyl ester] came in with an EC90 of over 12.5 µM. Moreover, the IC50 at HSV-1 protease worked out at 2.9 µM. The “Cell viability (% of control)” value with Vero cells is given as 55.6%.

Compound `Cc1c(NC(=O)C2CCC2)ccc2nc(NC(C)(C)C(=O)N(C)CCc3ccccn3)oc(=O)c12` [Compound No.198, Cyclobutanecarboxylic acid (5-methyl-2-{1-methyl-1-[methyl-(2-pyridin-2-yl-ethyl)-carbamoyl]-ethylamino}-4-oxo-4H-benzo[d][1,3]oxazin-6-yl)-amide] showed an EC90 in the data set on HSV-1 of at least 12.5 µM. Further, the IC50 on HSV-1 protease was found to be 3.6 µM. The “Cell viability (% of control)” value with Vero cells turned out to be 99.2%.

In the data set with HSV-1, `COc1ccc(C(=O)Nc2ccc3nc(NC(C)(C)C(=O)N(C)CCc4ccccn4)oc(=O)c3c2C)cc1` [Compound No.163, 4-Methoxy-N-(5-methyl-2-{1-methyl-1-[methyl-(2-pyridin-2-yl-ethyl)-carbamoyl]-ethylamino}-4-oxo-4H-benzo[d][1,3]oxazin-6-yl)-benzamide] displayed an EC90 of 10.7 µM. Further, the IC50 at HSV-1 protease was 1.3 µM. Further, the “Cell viability (% of control)” value in the data set with Vero cells is listed as 66.0%.

In the case of `Cc1c(NC(=O)OC(C)(C)C)ccc2nc(N[C@@H](CCc3ccccc3)C(=O)N(C)CCc3cccnc3)oc(=O)c12` [Compound No.70, (5-Methyl-2-{1S-[methyl-(2-pyridin-3-yl-ethyl)-carbamoyl]-3-phenyl-propylamino}-4-oxo-4H-benzo[d][1,3]oxazin-6-yl)-carbamic acid tert-butyl ester], the EC90 in the data set on HSV-1 was under 3.2 µM. At HSV-1 protease, the 50% inhibitory concentration (IC50) came out at 0.9 µM. Also, the “Cell viability (% of control)” value with Vero cells was 48.0%.

The compound `Cc1c(NC(=O)OC(C)(C)C)ccc2nc(N3C[C@H](OCc4ccccc4)C[C@H]3C(=O)NCc3cccnc3)oc(=O)c12` [Compound No.110, (2-{4R-Benzyloxy-2S-[(pyridin-3-ylmethyl)-carbamoyl]-pyrrolidin-1-yl}-5-methyl-4-oxo-4H-benzo[d][1,3]oxazin-6-yl)-carbamic acid tert-butyl ester] came in with an EC90 in the data set on HSV-1 of 7.4 µM. Besides, at HSV-1 protease, the IC50 came out at 6.3 µM. The “Cell viability (% of control)” value in the data set on Vero cells is 71.9%.

For `Cc1c(NC(=O)CCCNC(=O)c2ccccn2)ccc2nc(NC(C)(C)C(=O)N(C)CCc3ccccn3)oc(=O)c12` [Compound No.221, Pyridine-2-carboxylic acid [3-(5-methyl-2-{1-methyl-1-[methyl-(2-pyridin-2-yl-ethyl)-carbamoyl]-ethylamino}-4-oxo-4H-benzo[d][1,3]oxazin-6-ylcarbamoyl)-propyl]-amide], the concentration for an effect of 90% (EC90) with HSV-1 is over 12.5 µM. Further, the 50% inhibitory concentration (IC50) on HSV-1 protease worked out at 0.7 µM. Also, the “Cell viability (% of control)” value in the data set on Vero cells worked out at 105.3%.

The compound `Cc1c(NC(=O)OC(C)(C)C)ccc2nc(N(C)[C@@H](C)C(=O)NCCc3ccccn3)oc(=O)c12` [Compound No.74, (5-Methyl-2-{methyl-[1S-(2-pyridin-2-ylethylcarbamoyl)-ethyl]-amino}-4-oxo-4H-benzo[d][1,3]oxazin-6-yl)-carbamic acid tert-butyl ester] returned an EC90 in the data set with HSV-1 of over 12.5 µM. In addition, the half-inhibitory concentration (IC50) on HSV-1 protease stood at 1.5 µM. Moreover, in the data set with Vero cells, the “Cell viability (% of control)” value is recorded as 95.3%.

`Cc1c(NC(=O)OC(C)(C)C)ccc2nc(N[C@@H](CC3CCCCC3)C(=O)NCc3ccncc3)oc(=O)c12` [Compound No.28, (2-{2-Cyclohexyl-1S-[(pyridin-4-ylmethyl)-carbamoyl]-ethylamino}-5-methyl-4-oxo-4H-benzo[d][1,3]oxazin-6-yl)-carbamic acid tert-butyl ester] displayed an EC90 with HSV-1 of under 6.3 µM. On HSV-1 protease, the IC50 is 4.4 µM. The “Cell viability (% of control)” value in the data set on Vero cells came out at 70.0%.

`Cc1c(NC(=O)c2scc(S(=O)(=O)C(C)C)c2Cl)ccc2nc(NC(C)(C)C(=O)N(C)CCc3ccccn3)oc(=O)c12` [Compound No.180, 3-Chloro-4-(propane-2-sulfonyl)-thiophene-2-carboxylic acid (5-methyl-2-{1-methyl-1-[methyl-(2-pyridin-2-yl-ethyl)-carbamoyl]-ethylamino}-4-oxo-4H-benzo[d][1,3]oxazin-6-yl)-amide]: the EC90 in the data set on HSV-1 was over 12.5 µM. In addition, the concentration for half-maximal inhibition (IC50) at HSV-1 protease was 1.9 µM. Also, the “Cell viability (% of control)” value in the data set with Vero cells is on record as 87.4%.

The record behind these values is US20040116420A1 (priority 2001, published 2004).
